Measured values published in patent US10167262B2, “Herbicidal substituted 3-arylpyrazoles” (FMC CORPORATION, priority 2014, dated 2019).

Experiments:
Assay type in all cases: in vivo
[1] = test system: large (Lg) crabgrass (Digitaria sanguinalis); test: Test E pre-/postemergence greenhouse test, plant response rating 0-100; details: Preemergence, scale 0 to 100
[2] = test system: giant foxtail (Setaria faberii); test: as above; details: Preemergence, scale 0 to 100
[3] = test system: green foxtail (Setaria viridis); test: as above; details: Preemergence, scale 0 to 100
[4] = test system: goosegrass (Eleusine indica); test: as above; details: Preemergence, scale 0 to 100
[5] = test system: johnsongrass (Sorghum halepense); test: as above; details: Preemergence, scale 0 to 100
[6] = test system: Italian ryegrass (Lolium multiflorum); test: as above; details: scale 0 to 100; for Ryegrass, Italian plant response rating: Preemergence
Method in brief: (§1)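 Each species was tested both preemergence, with chemicals sprayed onto freshly planted silt loam, and postemergence, on plants 2 to 18 cm tall in a peat-based medium; the vehicle was a non-phytotoxic solvent mixture with surfactant. After 14 to 21 days in the greenhouse, growth was visually compared with controls and scored 0–100.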

[7] = test system: corn (Zea mays); test: as above; details: scale 0 to 100; for Corn plant response rating: Preemergence
Method in brief: as §1

[8] = test system: field bindweed (Convolvulus arvensis); test: as above; details: scale 0 to 100; for Field Bindweed plant response rating: Preemergence
Method in brief: as §1

[9] = test system: ragweed (common ragweed, Ambrosia elatior); test: as above; details: Preemergence, scale 0 to 100
Method in brief: as §1

[10] = test system: soybean (Glycine max); test: as above; details: scale 0 to 100; for Soybean plant response rating: Preemergence
Method in brief: as §1

[11] = test system: surinam grass (Brachiaria decumbens); test: as above; details: Preemergence, scale 0 to 100
Method in brief: as §1

[12] = test system: morningglory (Ipomoea coccinea); test: as above; details: Preemergence, scale 0 to 100
[13] = test system: yellow nutsedge (Cyperus esculentus); test: as above; details: Preemergence, scale 0 to 100
[14] = test system: waterhemp_RES1, (ALS & Triazine resistant common waterhemp, Amaranthus rudis); test: Test E postemergence greenhouse test, plant response rating 0-100; details: scale 0 to 100
Method in brief: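 Visual ratings, 0 (no effect) to 100 (complete control), made versus controls 14–21 days after postemergence application in the greenhouse. Plants were at 1- to 4-leaf stage (2–18 cm) in peat moss/vermiculite potting medium.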

SMILES: C#CCn1cc(C(=O)c2ccccc2)c(-c2cc(Cl)cc(Cl)c2)n1 [Compound 39, [3-(3,5-dichlorophenyl)-1-(2-propyn-1-yl)-1H-pyrazol-4-yl]phenylmethanone]
- Crabgrass, Large plant response rating ([1]; 62 g ai/ha): 0
- Crabgrass, Large plant response rating ([1]; 125 g ai/ha): 0
- Crabgrass, Large plant response rating ([1]; 250 g ai/ha): 0
- Crabgrass, Large plant response rating ([1]; 500 g ai/ha): 0
- Foxtail, Giant plant response rating ([2]; 62 g ai/ha): 0
- Foxtail, Giant plant response rating ([2]; 125 g ai/ha): 0
- Foxtail, Giant plant response rating ([2]; 250 g ai/ha): 0
- Foxtail, Giant plant response rating ([2]; 500 g ai/ha): 0
- Foxtail, Green plant response rating ([3]; 62 g ai/ha): 0
- Foxtail, Green plant response rating ([3]; 125 g ai/ha): 0
- Foxtail, Green plant response rating ([3]; 250 g ai/ha): 0
- Foxtail, Green plant response rating ([3]; 500 g ai/ha): 0
- Goosegrass plant response rating ([4]; 62 g ai/ha): 0
- Goosegrass plant response rating ([4]; 125 g ai/ha): 0
- Goosegrass plant response rating ([4]; 250 g ai/ha): 0
- Goosegrass plant response rating ([4]; 500 g ai/ha): 0
- Johnsongrass plant response rating ([5]; 62 g ai/ha): 0
- Johnsongrass plant response rating ([5]; 125 g ai/ha): 0
- Johnsongrass plant response rating ([5]; 250 g ai/ha): 0
- Johnsongrass plant response rating ([5]; 500 g ai/ha): 0
- pest or weed control at 31 g/ha ([6]; Lolium multiflorum, post-emergence, Postemergence, 31 g ai/ha): 0%
- pest or weed control at 62 g/ha ([6]; Lolium multiflorum, post-emergence, Postemergence, 62 g ai/ha): 0%
- pest or weed control at 125 g/ha ([6]; Lolium multiflorum, post-emergence, Postemergence, 125 g ai/ha): 0%
- pest or weed control at 250 g/ha ([6]; Lolium multiflorum, post-emergence, Postemergence, 250 g ai/ha): 0%
- pest or weed control at 500 g/ha ([6]; Lolium multiflorum, post-emergence, Postemergence, 500 g ai/ha): 0%
- Ryegrass, Italian plant response rating ([6]; 62 g ai/ha): 0
- Ryegrass, Italian plant response rating ([6]; 125 g ai/ha): 0
- Ryegrass, Italian plant response rating ([6]; 250 g ai/ha): 0
- Ryegrass, Italian plant response rating ([6]; 500 g ai/ha): 0
- Corn plant response rating ([7]; 62 g ai/ha): 0
- Corn plant response rating ([7]; 125 g ai/ha): 0
- Corn plant response rating ([7]; 250 g ai/ha): 0
- Corn plant response rating ([7]; 500 g ai/ha): 0
- Corn plant response rating (crop injury, 0 = no effect, 100 = complete kill) at 31 g/ha ([7]; Zea mays, post-emergence, Postemergence, 31 g ai/ha): 0%
- Corn plant response rating (crop injury, 0 = no effect, 100 = complete kill) at 62 g/ha ([7]; Zea mays, post-emergence, Postemergence, 62 g ai/ha): 0%
- Corn plant response rating (crop injury, 0 = no effect, 100 = complete kill) at 125 g/ha ([7]; Zea mays, post-emergence, Postemergence, 125 g ai/ha): 0%
- Corn plant response rating (crop injury, 0 = no effect, 100 = complete kill) at 250 g/ha ([7]; Zea mays, post-emergence, Postemergence, 250 g ai/ha): 0%
- Corn plant response rating (crop injury, 0 = no effect, 100 = complete kill) at 500 g/ha ([7]; Zea mays, post-emergence, Postemergence, 500 g ai/ha): 0%
- pest or weed control at 31 g/ha ([8]; Convolvulus arvensis, post-emergence, Postemergence, 31 g ai/ha): 0%
- pest or weed control at 62 g/ha ([8]; Convolvulus arvensis, post-emergence, Postemergence, 62 g ai/ha): 0%
- pest or weed control at 125 g/ha ([8]; Convolvulus arvensis, post-emergence, Postemergence, 125 g ai/ha): 0%
- pest or weed control at 250 g/ha ([8]; Convolvulus arvensis, post-emergence, Postemergence, 250 g ai/ha): 10%
- pest or weed control at 500 g/ha ([8]; Convolvulus arvensis, post-emergence, Postemergence, 500 g ai/ha): 10%
- Field Bindweed plant response rating ([8]; 62 g ai/ha): 0
- Field Bindweed plant response rating ([8]; 125 g ai/ha): 0
- Field Bindweed plant response rating ([8]; 250 g ai/ha): 0
- Field Bindweed plant response rating ([8]; 500 g ai/ha): 0
- Ragweed plant response rating ([9]; 62 g ai/ha): 60
- Ragweed plant response rating ([9]; 125 g ai/ha): 0
- Ragweed plant response rating ([9]; 250 g ai/ha): 65
- Ragweed plant response rating ([9]; 500 g ai/ha): 30
- plant injury at 31 g/ha ([10]; Glycine max, post-emergence, Postemergence, 31 g ai/ha): 0%
- plant injury at 62 g/ha ([10]; Glycine max, post-emergence, Postemergence, 62 g ai/ha): 0%
- plant injury at 125 g/ha ([10]; Glycine max, post-emergence, Postemergence, 125 g ai/ha): 0%
- plant injury at 250 g/ha ([10]; Glycine max, post-emergence, Postemergence, 250 g ai/ha): 10%
- plant injury at 500 g/ha ([10]; Glycine max, post-emergence, Postemergence, 500 g ai/ha): 20%
- Soybean plant response rating ([10]; 62 g ai/ha): 0
- Soybean plant response rating ([10]; 125 g ai/ha): 0
- Soybean plant response rating ([10]; 250 g ai/ha): 0
- Soybean plant response rating ([10]; 500 g ai/ha): 0
- Surinam Grass plant response rating ([11]; 62 g ai/ha): 0
- Surinam Grass plant response rating ([11]; 125 g ai/ha): 0
- Surinam Grass plant response rating ([11]; 250 g ai/ha): 0
- Surinam Grass plant response rating ([11]; 500 g ai/ha): 0
- Morningglory plant response rating ([12]; 62 g ai/ha): 0
- Morningglory plant response rating ([12]; 125 g ai/ha): 0
- Morningglory plant response rating ([12]; 250 g ai/ha): 0
- Morningglory plant response rating ([12]; 500 g ai/ha): 0
- Nutsedge, Yellow plant response rating ([13]; 62 g ai/ha): 0
- Nutsedge, Yellow plant response rating ([13]; 125 g ai/ha): 0
- Nutsedge, Yellow plant response rating ([13]; 250 g ai/ha): 0
- Nutsedge, Yellow plant response rating ([13]; 500 g ai/ha): 0
- Plant response rating, Waterhemp_RES1 ([14]; 31 g ai/ha): 85
- Plant response rating, Waterhemp_RES1 ([14]; 62 g ai/ha): 85
- Plant response rating, Waterhemp_RES1 ([14]; 125 g ai/ha): 90
- Plant response rating, Waterhemp_RES1 ([14]; 250 g ai/ha): 90
- Plant response rating, Waterhemp_RES1 ([14]; 500 g ai/ha): 95
